# System: XBP1s-luc 293 LUC
# Test: cellular PD assay, XBP1s-LUC reporter (Example 903)
# Format: cell-based
# Settings: Table 1; read-out: XBP1s-luc 293 LUC (IC50)
# Summary of the method: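 A luciferase fusion, in frame and expressed only when the XBP1 transcript is spliced, served as the readout of cellular IRE1α activity in an XBP1-Luc reporter line.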
row,Structure (SMILES),IC50
1,"Cc1ccc2c(NS(=O)(=O)Cc3ccccc3)cccc2c1Oc1ncccc1-c1ccnc(N[C@@H]2CNC[C@H](F)C2)n1 [Example 148, N-(5-((3-(2-(((3S,5R)-5-Fluoropiperidin-3-yl)amino)pyrimidin-4-yl)pyridin-2-yl)oxy)-6-methylnaphthalen-1-yl)-1-phenylmethanesulfonamide]",211 nM
2,"Cc1ccc2c(NS(=O)(=O)CC(C)C)c(F)ccc2c1Oc1ncccc1-c1ccnc(N[C@@H]2CNC[C@@H](F)C2)n1 (single isomer, unassigned) [Example 208]",18.2 nM
3,"Cc1ccc2c(NC(=O)CC3CCCCC3)cccc2c1Oc1ncccc1-c1ccnc(N[C@H]2CCCNC2)n1 [Example 130, (S)-2-Cyclohexyl-N-(6-methyl-5-((3-(2-(piperidin-3-ylamino)pyrimidin-4-yl)pyridin-2-yl)oxy)naphthalen-1-yl)acetamide]",228 nM
4,"Cc1ccc2c(NS(=O)(=O)Cc3ccccc3CO)cccc2c1Oc1ncccc1-c1ccnc(N[C@H]2CCCNC2)n1 [Example 166, (S)-1-(2-(Hydroxymethyl)phenyl)-N-(6-methyl-5-((3-(2-(piperidin-3-ylamino)pyrimidin-4-yl)pyridin-2-yl)oxy)naphthalen-1-yl)methanesulfonamide]",118 nM
5,"Cc1ccc2c(NCC(O)C(C)C)cccc2c1Oc1ncccc1-c1ccnc(N[C@H]2CCCNC2)n1 (mixture of isomers) [Example 200, 3-Methyl-1-((6-methyl-5-((3-(2-((S)-piperidin-3-ylamino)pyrimidin-4-yl)pyridin-2-yl)oxy)naphthalen-1-yl)amino)butan-2-ol]",77 nM
6,"Cc1nc(CNc2c(F)ccc3c(Oc4ncccc4-c4ccnc(N[C@H]5CCCNC5)n4)c(C)ccc23)cs1 [Example 371, (S)-4-(2-((6-Fluoro-2-methyl-5-(((2-methylthiazol-4-yl)methyl)amino)naphthalen-1-yl)oxy)pyridin-3-yl)-N-(piperidin-3-yl)pyrimidin-2-amine]",381 nM
7,"Cc1ccc2c(NCC(C)C#N)cccc2c1Oc1ncccc1-c1ccnc(N[C@H]2CCCNC2)n1 (single isomer, unassigned) [Example 382]",62.3 nM
8,"Cc1ccc2c(NCc3ccccn3)cccc2c1Oc1ncccc1-c1ccnc(N[C@H]2CCCNC2)n1 [Example 261, (S)-4-(2-((2-Methyl-5-((pyridin-2-ylmethyl)amino)naphthalen-1-yl)oxy)pyridin-3-yl)-N-(piperidin-3-yl)pyrimidin-2-amine]",220 nM
9,"Cc1ccc2c(NC(=O)[C@H]3CCCC3C)cccc2c1Oc1ncccc1-c1ccnc(N[C@H]2CCCNC2)n1 (single isomer, unassigned) [Example 372]",470 nM
10,"Cc1ccc2c(NC(=O)CC(F)(F)F)cccc2c1Oc1ncccc1-c1ccnc(N[C@H]2CCCNC2)n1 [Example 252, (S)-3,3,3-Trifluoro-N-(6-methyl-5-(3-(2-(piperidin-3-ylamino)pyrimidin-4-yl)pyridin-2-yloxy)naphthalen-1-yl)propanamide]",134 nM

# Same assay, conditions: Table 2; read-out: XBP1s-luc 293 LUC (IC50)
row,Structure (SMILES),IC50
1,"CCC(C)CS(=O)(=O)Nc1c(F)ccc2c(Oc3ncccc3-c3ccnc(N[C@H]4CCCNC4)n3)c(C)ccc12 (mixture of isomers) [Example 409, N-(2-Fluoro-6-methyl-5-((3-(2-(((S)-piperidin-3-yl)amino)pyrimidin-4-yl)pyridin-2-yl)oxy)naphthalen-1-yl)-2-methylbutane-1-sulfonamide]",25 nM
2,"Cc1c(F)c(NS(=O)(=O)CCC(F)(F)F)c2ccccc2c1Oc1ncccc1-c1ccnc(N[C@H]2CCCNC2)n1 [Example 482, (S)-3,3,3-Trifluoro-N-(2-fluoro-3-methyl-4-((3-(2-(piperidin-3-ylamino)pyrimidin-4-yl)pyridin-2-yl)oxy)naphthalen-1-yl)propane-1-sulfonamide]",65 nM
3,"Cc1ccc2c(NC(=O)C3CC34CC4)c(F)ccc2c1Oc1ncccc1-c1ccnc(N[C@H]2CCCNC2)n1 (stereo partly drawn) [Example 465, N-(2-Fluoro-6-methyl-5-((3-(2-(((S)-piperidin-3-yl)amino)pyrimidin-4-yl)pyridin-2-yl)oxy)naphthalen-1-yl)spiro[2.2]pentane-1-carboxamide]",57 nM

# Source: patent US10968203B2, “Pyrimidinyl-pyridyloxy-naphthyl compounds and methods of treating IRE1-related diseases and disorders” (Genentech, Inc., priority 2017, dated 2021)
